This note sets out measurements from paper PMC6722010 (Molecular pharmaceutics, 2019).

Molecules are shown by their SMILES.

One series in a line: solubility. The series is classed as physicochemical. The following applies: water / buffer.
The test system of the next series is PSMA. The experiment in a line: in vivo 68Ga-PSMA-11 blocking, PET imaging and biodistribution. The note with it: 22Rv1 xenograft mice; organs gamma counted.

As for `N[C@@H](Cc1ccc(B(O)O)cc1)C(=O)O` [BPA, 4-borono-L-phenylalanine], the solubility result in the series “solubility” is given as “low solubility in buffer”. Besides, in the series on PSMA, the “68Ga-PSMA-11 biodistribution, uptake in kidney, spleen and tumor” value was “did not significantly block uptake”.
